Measured values taken from patent US20100144767A1, “Use of sodium channel blockers for the treatment of visceral pain or pain caused by cancer treatment” (priority 2005, published 2010).
Several values for one entry are separate records, joined by “and”; a condition that tells them apart may be missing. Equal values may be shown once.

Experiments:
[1] = system: postoperative pain (incised hind paw withdrawal latency); experiment: Postoperative pain, thermal stimulus, four days of pre-treatment; type: in vivo, rats
Method: The studied compounds (dypirone at 40 mg/kg and tetrodotoxin at 0, 3, 4 μg/kg) were administered subcutaneously to groups of 12 male rats twice daily for 4 days. On the morning of Day 5, an incision was made in the hind paw of the rats. One hour later, the compounds were administered again and 30 minutes later, a thermal stimulus was applied in the incised paw and the latency to withdraw the hind paws was recorded.

[2] = system: capsaicin-induced nociceptive behaviours; experiment: Visceral pain model: capsaicin solution delivered to the colon, nociceptive behaviours counted for 30 min; set-up: species or system mice; details: mouse, in vivo
[3] = system: carrageenan-induced inflammatory pain; set-up: species or system SD rats; details: rat, in vivo
[4] = system: pain (visceral pain, pain caused by therapy); details: human, in vivo
[5] = system: moderate to severe pain associated with cancer; set-up: species or system human; details: in vivo
[6] = system: formalin-induced inflammation; set-up: species or system rats; details: rat, in vivo
[7] = system: postoperative pain (incised hind paw withdrawal latency); experiment: Postoperative pain, thermal stimulus, acute treatment (hind paw incision); type: in vivo, rats; details: Rattus norvegicus, iv

Structure (SMILES): Cc1c(N(C)CS(=O)(=O)[O-])c(=O)n(-c2ccccc2)n1C.[Na+] [Dypirone, reference compound]
- antinociceptive activity ([1]; 40 mg/kg s.c. b.i.d., four days of pre-treatment): 40%

Structure (SMILES): N=C1NC(O)C2C3OC4(O)OC(C(O)C2(N1)C4O)C3(O)CO (stereo not drawn) [Tetrodotoxin, octahydro-12-(hydroxymethyl)-2-imino-5,9:7,10a-dimethano-10aH-[1,3]dioxocino[6,5-d]pyrimidine-4,7,10,11,12-pentol]
- effects on capsaicin-induced nociceptive behaviours versus control ([2]; sc): 30% and 58.8%
- antinociceptive activity ([1]; rat, in vivo): 35% and 39%
- effect upon the degree of inflammation [3]: does not have any effect
- nociceptive threshold, Randall-Selitto test (paw pressure) ([3]; sc): higher nociceptive threshold
- analgesic response [4]: no analgesic response
- decrease in current and average pain intensity [4]: about 2 point
- most pain relief percentage [4]: 89%
- pain score [4]: 7 /10 and 4 /10
- relief of pain [4]: complete relief of their pain
- impression of change [5]: 1
- total response day [5]: 66 days
- effective dosage [6]: 2.5 µg/mg

Structure (SMILES): CN1CC[C@]23c4c5ccc(O)c4O[C@H]2[C@@H](O)C=C[C@H]3[C@H]1C5 [Morphine]
- effects on capsaicin-induced nociceptive behaviours versus control [2]: 54.8% and 92.5% and 100%
- ED50 [7]: 0.59 mg/kg
